Among the data in patent publication US11066414B2, “Cot modulators and methods of use thereof” (Gilead Sciences, Inc., priority 2015, dated 2021) are EC50 and IC50 values, retold here.

Broadly, the EC50 is the concentration that produces a half-maximal response. One may read the IC50 as the concentration at which inhibition is half-maximal.

Assay [1] relates to TNFα. Kind of assay: Cot Monocyte TNFα Cell Based Assay.
The target in assay [2] is Human Cot (Homo sapiens (Human), UniProt P41279). Put plainly: High Throughput Cot Biochemical Assay. Particulars: Cot HTRF (TR-FRET) biochemical assay. In general terms: In TR-FRET formats the signal depends on donor and acceptor labels being close together.
Sequence of Human Cot (P41279 30-397): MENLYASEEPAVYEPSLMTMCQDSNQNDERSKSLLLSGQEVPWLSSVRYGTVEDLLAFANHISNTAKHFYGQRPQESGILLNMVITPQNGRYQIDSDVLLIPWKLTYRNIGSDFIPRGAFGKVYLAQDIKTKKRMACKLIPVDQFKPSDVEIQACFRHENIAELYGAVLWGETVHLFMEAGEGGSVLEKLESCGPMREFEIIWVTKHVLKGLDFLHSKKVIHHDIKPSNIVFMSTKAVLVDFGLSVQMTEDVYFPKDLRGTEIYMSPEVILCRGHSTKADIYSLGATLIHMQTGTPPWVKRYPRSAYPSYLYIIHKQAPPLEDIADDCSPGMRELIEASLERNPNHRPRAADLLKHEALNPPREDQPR
Setting [3] is: Homo sapiens, Monocyte, read-out: EC50 TNF, LPS-stimulated human monocytes, TNFα.
Setting [4] is: read-out: EC50 TNF, LPS-stimulated human monocytes, TNFα.

Like-named read-outs stand apart in the source and are kept apart here.

Turning to `Cc1ncsc1[C@H](Nc1cc(C#N)c2ncc(C#N)c(NCC(C)(C)C)c2c1)c1cn(C2(C(F)F)CC2)nn1` [Example 640, (R)-6-(((1-(1-(difluoromethyl)-cyclopropyl)-1H-1,2,3-triazol-4-yl)(4-methylthiazol-5-yl)methyl)amino)-4-(neopentylamino)quinoline-3,8-dicarbonitrile], the half-maximal effective concentration (EC50) in assay [1] (setting [3]) is 65 nM. 3 nM corresponded to half-maximal inhibition in assay [2] (IC50 HTRF) (IC50).
Consider `Cc1scnc1[C@H](Nc1cc(C#N)c2ncc(C#N)c(NCC(C)(C)C)c2c1)c1cn(C2(C(F)F)CC2)nn1` [Example 641], for which the EC50 in assay [1] (setting [4]) was 811 nM. For the same molecule, in assay [2] (read-out: IC50 HTRF), the concentration for half-maximal inhibition (IC50) amounted to 55 nM.
Regarding `Cc1nc(F)ccc1[C@H](Nc1cc(C#N)c2ncc(C#N)c(NCC(C)(C)C)c2c1)c1cn(C2(C(=O)N(C)C)CC2)nn1` [Example 642, (S)-1-(4-(((3,8-dicyano-4-(neopentylamino)quinolin-6-yl)amino)(6-fluoro-2-methylpyridin-3-yl)methyl)-1H-1,2,3-triazol-1-yl)-N,N-dimethylcyclopropane-1-carboxamide], the EC50 in assay [1] (setting [3]) came out at 182 nM. In addition, half-maximal inhibition in assay [2] (IC50 HTRF) (IC50) was put at 5 nM.
In the case of `Cc1nc(F)ccc1[C@H](Nc1cc(Cl)c2ncc(C#N)c(NCC(C)(C)C)c2c1)c1nnn(C2CC2)c1I` [Example 643, (S)-8-chloro-6-(((1-cyclopropyl-S-iodo-1H-1,2,3-triazol-4-yl)(6-lluoro-2-methylpyridin-3-yl)methyl)amino)-4-(neopentylamino)quinoline-3-carbonitrile], the concentration giving a half-maximal response (EC50) in assay [1] (setting [4]) came to 1000 nM. Also, in assay [2] (read-out: IC50 HTRF), the concentration for half-maximal inhibition (IC50) amounted to 5 nM.
As to `Cc1nc(F)ccc1[C@H](Nc1cc(Cl)c2ncc(C#N)c(NCC(C)(C)C)c2c1)c1cn(C2CC(F)(F)C2)nn1` [Example 645, (S)-8-chloro-6-(((1-(3,3-difluorocyclobutyl)-1H-1,2,3-triazol-4-yl)(6-fluoro-2-methylpyridin-3-yl)methyl)amino)-4-(neopentylamino)quinoline-3-carbonitrile], in assay [1] (setting [3]), the concentration giving a half-maximal response (EC50) is 66 nM. Also, 11 nM corresponded to half-maximal inhibition in assay [2] (IC50 HTRF) (IC50).
The like results for `Cc1nc(F)ccc1[C@H](Nc1cc(Cl)c2ncc(C#N)c(NCC(C)(C)C)c2c1)c1cn(C23CC(C2)C3)nn1` [Example 646, (S)-6-(((1-(bicyclo[1.1.1]pentan-1-yl)-1H-1,2,3-triazol-4-yl)(6-fluoro-2-methylpyridin-3-yl)methyl)amino)-8-chloro-4-(neopentylamino)quinoline-3-carbonitrile] were, in that order, 40 nM and 3 nM.
In the case of `Cc1nc(F)ccc1[C@H](Nc1cc(Cl)c2ncc(C#N)c(NCC(C)(C)C)c2c1)c1cn(C2(CO)COC2)nn1` [Example 648, (S)-8-chloro-6-(((6-fluoro-2-methylpyridin-3-yl)(1-(3-(hydroxymethyl)oxetan-3-yl)-1H-1,2,3-triazol-4-yl)methyl)amino)-4-(neopentylamino)quinoline-3-carbonitrile], the concentration for a half-maximal effect (EC50) in assay [1] (setting [3]) stood at 114 nM. In addition, in assay [2] (IC50 HTRF), the 50% inhibitory concentration (IC50) was 3 nM.
For `[2H][C@@](Nc1cc(Cl)c2ncc(C#N)c(NCC(C)(C)C)c2c1)(c1cn(C2CC2)nn1)c1cccnc1N(C)C` [Example 650, (S)-8-chloro-6-(((1-cyclopropyl-1H-1,2,3-triazol-4-yl)(2-(dimethylamino)pyridin-3-yl)methyl-d)amino)-4-(neopentylamino)quinoline-3-carbonitrile], the EC50 in assay [1] (setting [3]) came to 1000 nM. Moreover, in assay [2] (IC50 HTRF), the half-maximal inhibitory concentration (IC50) was found to be 179 nM.
`CC(C)(C)CNc1c(C#N)cnc2c(Cl)cc(N[C@H](c3cn(C4(C(F)F)CC4)nn3)c3ccc(F)c4cnccc34)cc12` [Example 652, (S)-8-chloro-6-(((1-(1-(difluoromethyl)cyclopropyl)-1H-1,2,3-triazol-4-yl)(8-fluoroisoquinolin-5-yl)methyl)amino)-4-(neopentylamino)quinoline-3-carbonitrile]: the EC50 in assay [1] (setting [3]) came to 40 nM. In addition, it took 4 nM to reach half-maximal inhibition in assay [2] (IC50 HTRF) (IC50).
Regarding `Cc1nc(F)ccc1[C@H](Nc1cc(Cl)c2ncc(C#N)c(NCC(C)(C)C)c2c1)c1cn(Cc2c(F)cccc2F)nn1` [Example 654, (S)-8-chloro-6-(((1-(2,6-difluorobenzyl)-1H-1,2,3-triazol-4-yl)(6-fluoro-2-methylpyridin-3-yl)methyl)amino)-4-(neopentylamino)quinoline-3-carbonitrile], in assay [1] (setting [3]), the EC50 is 36 nM. Also, half-maximal inhibition in assay [2] (IC50 HTRF) (IC50) was put at 3 nM.
Consider `Cn1ncc2c([C@H](Nc3cc(C#N)c4ncc(C#N)c(NCC(C)(C)C)c4c3)c3cn(Cc4c(F)cccc4F)nn3)cccc21` [Example 656], for which the EC50 in assay [1] (setting [4]) came out at 86 nM. Also, the half-inhibitory concentration (IC50) in assay [2] (read-out: IC50 HTRF) came out at 4 nM.
`Cc1cncc2cccc([C@H](Nc3cc(Cl)c4ncc(C#N)c(NCC(C)(C)C)c4c3)c3cn(C4(C(F)(F)F)CC4)nn3)c12` [Example 659, (S)-8-chloro-6-(((4-methylisoquinolin-5-yl)(1-(1-(trifluoromethyl)cyclopropyl)-1H-1,2,3-triazol-4-yl)methyl)amino)-4-(neopentylamino)quinoline-3-carbonitrile]: the EC50 in assay [1] (setting [3]) amounted to 279 nM. Also, the IC50 in assay [2] (IC50 HTRF) is 41 nM.
For `Cc1ccnc2cccc([C@H](Nc3cc(Cl)c4ncc(C#N)c(NCC(C)(C)C)c4c3)c3cn(C4(C(F)(F)F)CC4)nn3)c12` [Example 660, (S)-8-chloro-6-(((4-methylquinolin-5-yl)(1-(1-(trifluoromethyl)cyclopropyl)-1H-1,2,3-triazol-4-yl)methyl)amino)-4-(neopentylamino)quinoline-3-carbonitrile], the EC50 in assay [1] (setting [3]) was determined as 839 nM. The molecule also yielded a half-inhibitory concentration (IC50) in assay [2] (IC50 HTRF) of 43 nM.
For the molecule `Cc1nc(F)ccc1[C@H](Nc1cc(C#N)c2ncc(C#N)c(NCC(C)(C)C)c2c1)c1cn(C(F)(F)CO)nn1` [Example 661, (S)-6-(((1-(1,1-difluoro-2-hydroxyethyl)-1 H-1,2,3-triazol-4-yl)(6-fluoro-2-methylpyridin-3-yl)methyl)amino)-4-(neopentylamino)quinoline-3,8-dicarbonitrile], the half-maximal effective concentration (EC50) in assay [1] (setting [3]) was found to be 103 nM. This molecule also gave an IC50 in assay [2] (IC50 HTRF) of 2 nM.
`Cc1nc(F)ccc1[C@H](Nc1cc(Cl)c2ncc(C#N)c(NCC(C)(C)C)c2c1)c1nnn(C2CC2)c1Cl` [Example 662, (S)-8-chloro-6-(((5-chloro-1-cyclopropyl-1H-1,2,3-triazol-4-yl)(6-fluoro-2-methylpyridin-3-yl)methyl)amino)-4-(neopentylamino)quinoline-3-carbonitrile]: the EC50 in assay [1] (setting [3]) amounted to 335 nM. The IC50 in assay [2] (IC50 HTRF) stood at 6 nM.
For `Cc1nc(F)ccc1[C@H](Nc1cc(Cl)c2ncc(C#N)c(NCC(C)(C)C)c2c1)c1nnn(C2CC2)c1F` [Example 663, (S)-8-chloro-6-(((1-cyclopropyl-5-fluoro-1H-1,2,3-triazol-4-yl)(6-fluoro-2-methylpyridin-3-yl)methyl)amino)-4-(neopentylamino)quinoline-3-carbonitrile], the 50% effective concentration (EC50) in assay [1] (setting [3]) amounted to 62 nM. The IC50 in assay [2] (IC50 HTRF) stood at 3 nM.
For the molecule `Cn1nccc1[C@H](Nc1cc(Cl)c2ncc(C#N)c(NCC(C)(C)C)c2c1)c1cn(C2(C(F)F)CC2)nn1` [Example 665, (S)-8-chloro-6-(((1-(1-(difluoromethyl)cyclopropyl)-1H-1,2,3-triazol-4-yl)(1-methyl-1H-pyrazol-5-yl)methyl)amino)-4-(neopentylamino)quinoline-3-carbonitrile], the EC50 in assay [1] (setting [3]) turned out to be 198 nM. Besides, the IC50 in assay [2] (IC50 HTRF) was determined as 6 nM.
With `Cc1nc(F)ccc1[C@H](Nc1cc(Cl)c2ncc(C#N)c(N[C@@H]3CCOCC3(C)C)c2c1)C1=CN(C2(C3CC3)CC2)NN1` [Example 669], the EC50 in assay [1] (setting [4]) was determined as 7 nM. In assay [2] (read-out: IC50 HTRF), the IC50 was 1 nM.
